# Assay results published in PubChem BioAssay AID493250 (Broad Institute, 2011).
# Active and inactive are the calls of the source.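 Rule for the calls: active = signal decrease with fitted half-maximal dose at or below ten times the highest valid tested dose; inconclusive = poor fit, or flat fit at 30 to 70% inhibition; inactive = the rest.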
# Biological target: Zinc finger protein mex-5 (Caenorhabditis elegans) (UniProt Q9XUB2)
# Assay: inhibitors of MEX-5 RNA binding, dose response, biochemical, fluorescence polarization, C. elegans, cherry-picked, round 3 (AID 493250)
# Conditions: purified MEX-5-MBP, FITC-TCR2 RNA fluorescence polarization
# Chain of Zinc finger protein mex-5 (Caenorhabditis elegans) (Q9XUB2 whole entry, looked up): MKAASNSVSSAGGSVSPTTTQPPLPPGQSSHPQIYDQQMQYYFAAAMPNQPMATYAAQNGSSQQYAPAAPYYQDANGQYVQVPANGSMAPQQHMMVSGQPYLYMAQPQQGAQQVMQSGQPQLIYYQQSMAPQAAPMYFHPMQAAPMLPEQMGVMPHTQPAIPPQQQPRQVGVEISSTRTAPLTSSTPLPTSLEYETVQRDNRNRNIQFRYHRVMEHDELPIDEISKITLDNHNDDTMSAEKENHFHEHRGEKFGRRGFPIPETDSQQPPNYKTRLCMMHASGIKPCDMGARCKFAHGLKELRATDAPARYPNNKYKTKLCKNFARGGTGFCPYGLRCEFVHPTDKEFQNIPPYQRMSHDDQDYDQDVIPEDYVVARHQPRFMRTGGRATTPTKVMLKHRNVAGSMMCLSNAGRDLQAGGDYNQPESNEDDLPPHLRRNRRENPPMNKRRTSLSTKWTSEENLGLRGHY
row,Structure (SMILES),AC50
1,COC(=O)c1ccc2c(c1)SC1=C(CCCC1=O)N2,5.95 µM
2,CCCC1C2CN(C(C)C)CC=C2C(C#N)=C(N)C1(C#N)C#N (configuration not stated),4.99 µM
3,COC(=O)C1=COC(C)C2CN3CCc4c([nH]c5ccccc45)C3CC12 (configuration not stated),4.21 µM
4,CNC(=O)c1sc(N2N=C3/C(=C/c4ccccc4)CCCC3C2c2ccccc2)nc1C (configuration not stated),7.59 µM
5,COc1cccc(C2C=C(c3cccs3)Nc3ncnn32)c1OC (configuration not stated),> 10 µM (inactive)
6,CCS(=O)(=O)C1=NN2C(=N)/C(=C\c3ccc(SCc4ccco4)o3)C(=O)N=C2S1,10.4 µM
7,CCCOc1cc(N(CC)CC)ccc1/C=C(/C#N)c1nc2ccc(C)cc2[nH]1,6.33 µM
8,COc1ccc(/C(O)=C/c2nc3ccccc3n(-c3ccccc3)c2=O)cc1,3.25 µM
9,CCOCCCn1c(=N)c(S(=O)(=O)c2ccccc2)cc2c(=O)n3cc(C)ccc3nc21,10.3 µM
10,CCC(=O)Oc1ccc2c(c1)O/C(=C\c1ccco1)C2=O,5.51 µM

# Same assay, conditions: purified MEX-5-MBP, FITC-TCR2 RNA fluorescence polarization; at 10 µM (top of the series)
row,Structure (SMILES),"activity change, negative = inhibition"
1,COc1c(O)ccc(/C=C(\C#N)c2nc3ccccc3[nH]2)c1[N+](=O)[O-],inactive
2,CN1CN(C)c2ccc([N+](=O)[O-])c3cccc1c23,inactive
3,O=C(N/N=C/c1c(O)ccc2ccccc12)c1ccc[n+](CCO)c1,inactive
4,Cc1c(C#N)c(O)[nH]c(=O)c1N=Nc1ccc(S(N)(=O)=O)cc1,inactive
5,CC1(N2CCOCC2)CC2(O)C(=[N+]1[O-])CCc1c2no[n+]1[O-] (configuration not stated),inactive
6,CN1C(=O)NC(c2ccccc2Cl)C2=C1CC(C)(C)CC2=O (configuration not stated),inactive
7,COC(=O)c1cccc(-c2ccc(C(c3c(C)[nH][nH]c3=O)c3c(C)[nH][nH]c3=O)o2)c1,inactive
8,Oc1cccc(NC(=S)N=Nc2c(O)[nH]c3ccc(Br)cc23)c1,inactive
9,NS(=O)(=O)c1ccc(N=Nc2ccc(=O)[nH]c2O)cc1,inactive
10,COc1cccc(NCc2cc(=O)oc3cc(C)c(C(C)C)cc23)c1,inactive
11,Cc1ccc(N/N=C(\C#N)C(=O)c2ccsc2)cc1,inactive
12,CN(C)CC(O)COc1ccc(C(C)(C)c2ccc(OCC(O)CN(C)C)cc2)cc1 (configuration not stated),inactive
13,COC(=O)c1cc(NC(=O)c2ccccc2)c(=O)oc1C,inactive
14,COC(=O)c1cccc2nc3c(C(C)O)cccc3nc12 (configuration not stated),inactive
15,COCCN1CCC(CNCc2cn(-c3cc(C)ccc3C)nc2-c2ccccc2)C1 (configuration not stated),inactive
16,CC(C)(C)CC(C)(C)NCC(O)COc1ccc2c(c1)CCC2 (configuration not stated),inactive
17,O=c1cc(-c2ccccc2)oc2ccc(O)cc12,inactive
18,O=c1oc2cc([N+](=O)[O-])ccc2nc1/C=C(\O)c1cccc(Br)c1,inactive
19,O=S(=O)(O)c1nc2ccccc2n1Cc1ccc(Cl)cc1Cl,inactive

row,Structure (SMILES),"activity change, negative = inhibition"
1,Cc1cc(C)c[n+](-c2[nH]c(=O)sc2/C=N/N=C(\N)[S-])c1,inactive
2,COc1cc(/C=C/c2nc(-c3ccccc3O)n[nH]2)cc(OC)c1OC,inactive
3,CC(=O)Nc1ccc(/C=N\NC(=O)CNS(=O)(=O)c2ccc([N+](=O)[O-])cc2)cc1,inactive
4,COc1ccc(NC(=S)NNC(=O)C(C)n2nc(C)c([N+](=O)[O-])c2C)cc1 (configuration not stated),inactive
5,Cc1cc(C)c2ccc(=S)[nH]c2n1,inactive
6,CC(=O)c1cc(NC(=O)c2ccc([N+](=O)[O-])cc2)c(=O)oc1C,inactive
7,C/C=C(\C)CN1CCC(n2nccc2NC(=O)CCCc2ccccc2)CC1,inactive
8,CCOC(=O)[C@]1(C#N)[C@@H]2C=CC(C(N)=O)=CN2[C@@H](C(N)=O)[C@@H]1c1ccc(F)cc1,inactive
9,Cc1ccc(NC(=O)CCC(=O)NNC(=S)Nc2ccccc2)c(C)c1,inactive
10,CSc1ccc(C(c2c(C(=O)O)[nH]c3ccccc23)c2c(C(=O)O)[nH]c3ccccc23)cc1,inactive
11,COC(=O)c1ccc(CC(=O)c2ccc(O)cc2O)o1,inactive
12,O=c1[nH]nc(CNc2ccc(Cl)cc2Cl)c2ccccc12,inactive
13,Oc1cccc(/C=N/NC(=S)Nc2cccnc2)c1O,inactive
14,Cc1ccc2cc(C#N)c(N3CCCN(C(=O)C4CCCO4)CC3)nc2c1C (configuration not stated),inactive
15,C=CCc1cccc2cc(C(=O)NNC(=O)CC#N)c(=O)oc12,inactive
16,COc1ccc(CC(=O)NNc2ncnc3c2cnn3C)cc1OC,inactive
17,COCCNC(=S)NNC(=O)c1cccs1,inactive
18,CC[N+](C)(CC)CCCOC(=O)C(O)(c1ccccc1)C1CCCCC1 (configuration not stated),inactive
